The target in this test is MGAT2 (microsomal fraction of human small intestine) (Homo sapiens (Human), UniProt Q3SYC2). The experiment in a line: Test Example 2: Test of MGAT2 inhibitory action (microsomal fraction of human small intestine, 3H-labeled 2-monooleoyl glycerol). The note with it: microsomal fraction of human small intestine 5 μg/ml; 4 μM oleoyl-CoA, 1.25 μM 2-monooleoyl glycerol, 0.125 μM 3H-labeled 2-monooleoyl glycerol; room temperature 30 min; read-out: Activity Value [nM] (IC50, concentration at which 50% of the products 3H-labeled dioleoyl glycerol and trioleoyl glycerol was inhibited). The class given is biochemical. On the procedure: An MGAT2 inhibition test for test compounds was conducted in accordance with a partially modified version of the method described in John F. Lockwood et al., Am. J. Physiol. Endocrinol. Metab., 2003, 285, E927.
MGAT2 (microsomal fraction of human small intestine), sequence (Q3SYC2 whole entry): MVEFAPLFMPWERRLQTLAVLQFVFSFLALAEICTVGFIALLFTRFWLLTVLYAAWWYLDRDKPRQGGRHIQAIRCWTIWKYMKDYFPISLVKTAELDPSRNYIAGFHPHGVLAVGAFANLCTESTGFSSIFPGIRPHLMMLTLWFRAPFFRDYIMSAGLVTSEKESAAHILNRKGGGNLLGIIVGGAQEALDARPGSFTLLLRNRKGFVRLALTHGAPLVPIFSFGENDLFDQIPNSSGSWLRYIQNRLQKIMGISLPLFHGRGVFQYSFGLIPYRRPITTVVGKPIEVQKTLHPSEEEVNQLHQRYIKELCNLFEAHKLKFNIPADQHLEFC
A 10 mg/mL microsomal fraction of human small intestine (duodenum- and jejunum-derived fraction purchased from Becton Dickinson Japan) was used as an enzyme source.
The test was conducted using a flat-bottom 96-well plate (Corning).
A buffer solution with final concentrations of 5 mM magnesium chloride, 1.25 mg/ml bovine serum albumin and 100 mM Tris-HCl (pH=7.5) was prepared and the microsomal fraction of human small intestine was added thereto to give a final concentration of 5 μg/ml. […] Thereafter, final concentrations of 5 mM magnesium chloride, 1.25 mg/ml bovine serum albumin, 100 mM Tris-HCl (pH=7.5), 4 μM oleoyl-CoA, 1.25 μM 2-monooleoyl glycerol and 0.125 μM ^3H-labeled 2-monooleoyl glycerol (Muromachi Yakuhin Co., Ltd.) were added thereto to give a total volume of 100 μl. This mixture was reacted at room temperature for 30 min.
The reaction was stopped by adding an equal amount of isopropanol to the reaction mixture. The substrate contained in the reaction mixture (^3H-labeled 2-monooleoyl glycerol) and the reaction products (^3H-labeled dioleoyl glycerol and trioleoyl glycerol) were separated by adsorbing them onto an octadecylsilane resin (Wako gel 50C18) (Wako Pure Chemical Industries, Ltd.), removing the substrate by use of 80% isopropanol, and then eluting the reaction products with 100% isopropanol. The amounts of the reaction products were measured with MicroBeta (PerkinElmer Japan).

With `CC(C)(C)c1ccc(CCN2CCc3cc(S(=O)(=O)Nc4ccc(OCCOCC5CCCO5)cc4F)ccc3C2)cc1` (stereo not shown) [Working Example 8-9], the IC50 turned out to be 160 nM. Consider `CC(C)(C)c1ccc(CCN2CCc3cc(S(=O)(=O)Nc4ccc(OCCCOCC(F)(F)F)cc4F)ccc3C2)cc1` [Working Example 8-12], for which the IC50 was found to be 158 nM. For `CC(c1ccc(OCC(F)(F)F)nc1)N1CCc2cc(S(=O)(=O)Nc3ccc(CCCC4CCCC4)cc3F)ccc2C1` (stereo not shown) [23-6], the IC50 stood at 115 nM. Turning to `CCCn1cc(CN2CCc3cc(S(=O)(=O)Nc4ccc(CCCC5CCCC5)cc4F)ccc3C2)cn1` [Working Example 2-8], the IC50 amounted to 213 nM.

As for `CC(C)(C)c1cc(CN2CCc3cc(S(=O)(=O)Nc4ccc(CCCC5CCCC5)cc4F)ccc3C2)ccn1` [Working Example 6-85], the IC50 stood at 71 nM. Regarding `CC(C)(C)n1cc(CN2CCc3cc(S(=O)(=O)Nc4ccc(OCCC5CCOCC5)cc4F)ccc3C2)cn1` [Working Example 2-10], the IC50 is 198 nM. As to `CC(C)(C)c1ccc(CCN2CCc3cc(S(=O)(=O)Nc4ccc(OCC[C@H]5CCOC[C@H]5F)cc4F)ccc3C2)cc1` [Working Example 8-11], the IC50 worked out at 169 nM. On to `CC(C)(C)c1cnc(CCN2CCc3cc(S(=O)(=O)Nc4ccc(CCCC5CCCC5)cc4F)ccc3C2)cn1` [Working Example 9-23], for which the IC50 came to 46 nM. Consider `O=S(=O)(Nc1ccc(CCCC2CCCC2)cc1F)c1ccc2c(c1)CCN(Cc1cnn(C3CCC3)c1)C2` [Working Example 2-9], for which the IC50 stood at 142 nM. For the molecule `CC(C)(C)c1cc(CN2CCc3cc(S(=O)(=O)Nc4ccc(OCCC5CCOCC5)cc4F)ccc3C2)ccn1` [Working Example 8-7], the IC50 came out at 235 nM.

As to `CC(c1ccnc(C(C)(C)C)c1)N1CCc2cc(S(=O)(=O)Nc3ccc(CCCC4CCCC4)cc3F)ccc2C1` (stereo not shown) [23-3], the IC50 came to 13 nM. Next, `C[C@H](c1ccc(C(C)(C)C)nc1)N1CCc2cc(S(=O)(=O)Nc3ccc(CCCC4CCCC4)cc3F)ccc2C1` [24-1, 2-[(1R)-1-(6-tert-Butylpyridin-3-yl)ethyl]-N-[4-(3-cyclopentylpropyl)-2-fluorophenyl]-1,2,3,4-tetrahydroisoquinoline-6-sulfonamide]: 4 nM. `CCn1cc(CN2CCc3cc(S(=O)(=O)Nc4ccc(CCCC5CCCC5)cc4F)ccc3C2)cn1` [Working Example 6-82]: the IC50 was found to be 182 nM. For `Cc1ccc(-n2nc(C)c(CN3CCc4cc(S(=O)(=O)Nc5ccc(CCCC6CCCC6)cc5F)ccc4C3)c2C)cc1` [Working Example 7-80], the IC50 came to 66 nM. Consider `CC(C)(C)c1ccc(C(C)(C)N2CCc3cc(S(=O)(=O)Nc4ccc(CCCC5CCCC5)cc4F)ccc3C2)cn1` [20-4], for which the IC50 stood at 5 nM. The same measure for `Cc1nn(C)c(C)c1CN1CCc2cc(S(=O)(=O)Nc3ccc(CCCC4CCCC4)cc3F)ccc2C1` [Working Example 7-82]: 189 nM; for `CC(C)n1cc(CN2CCc3cc(S(=O)(=O)Nc4ccc(CCCC5CCCC5)cc4F)ccc3C2)cn1` [Working Example 2-5]: 180 nM. As for `CC(C)(C)n1cc(CN2CCc3cc(S(=O)(=O)Nc4ccc(CCCC5CCCC5)cc4F)ccc3C2)cn1` [Working Example 2-4], the IC50 amounted to 92 nM. As to `Cc1cc(CN2CCc3cc(S(=O)(=O)Nc4ccc(CCCC5CCCC5)cc4F)ccc3C2)c(C)n1-c1ccncc1` [Working Example 7-88], the IC50 amounted to 145 nM.

For `O=S(=O)(Nc1ccc(OCCC2CCOCC2)cc1F)c1ccc2c(c1)CCN(Cc1cnc(C(F)(F)F)nc1)C2` [Working Example 6-83], the IC50 was 193 nM. `O=S(=O)(Nc1ccc(CCCC2CCCC2)cc1F)c1ccc2c(c1)CCN(Cc1cnn(CC3CC3)c1)C2` [Working Example 2-7]: the IC50 was found to be 234 nM. With `CC(C)(C)c1cc(CCN2CCc3cc(S(=O)(=O)Nc4ccc(CCCC5CCCC5)cc4F)ccc3C2)ccn1` [Working Example 6-90], the IC50 came out at 164 nM. Take `CC(C)(C)c1ccc(CCN2CCc3cc(S(=O)(=O)Nc4ccc(OCCCS(=O)(=O)c5ccccc5)cc4F)ccc3C2)cc1` [Working Example 8-6]: the IC50 came out at 35 nM.

With `CC(C)(C)c1ccc(CC2(N3CCc4cc(S(=O)(=O)Nc5ccc(CCCC6CCCC6)cc5F)ccc4C3)CC2)cc1` [25-1, 2-[1-(4-tert-Butylbenzyl)cyclopropyl]-N-[4-(3-cyclopentylpropyl)-2-fluorophenyl]-1,2,3,4-tetrahydroisoquinoline-6-sulfonamide], the IC50 was determined as 200 nM. Take `CC(c1ccc(C(F)(F)F)nc1)N1CCc2cc(S(=O)(=O)Nc3ccc(CCCC4CCCC4)cc3F)ccc2C1` (single isomer, unassigned) [24-4]: the IC50 stood at 185 nM. `O=S(=O)(Nc1ccc(CCCC2CCCC2)cc1F)c1ccc2c(c1)CCN(CCc1ccc(C(F)(F)F)cn1)C2` [Working Example 9-24]: the IC50 was determined as 46 nM. The same measure for `CC(C)(C)c1ccc(CCN2CCc3cc(S(=O)(=O)Nc4ccc(OCCCOC5CCCC5)cc4F)ccc3C2)cc1` [Working Example 8-14]: 68 nM; for `Cc1ccc(-n2cc(CN3CCc4cc(S(=O)(=O)Nc5ccc(CCCC6CCCC6)cc5F)ccc4C3)cn2)cc1` [Working Example 7-76]: 16 nM. With `CC(C)(C)c1ccc(CC(C)(C)N2CCc3cc(S(=O)(=O)Nc4ccc(OCCC5CCOCC5)cc4F)ccc3C2)cc1` [20-3], the IC50 is 223 nM. As to `Cc1c(CN2CCc3cc(S(=O)(=O)Nc4ccc(CCCC5CCCC5)cc4F)ccc3C2)cnn1-c1ccccc1` [Working Example 7-70], the IC50 was 81 nM. Regarding `CC(C)(C)n1cc(CCN2CCc3cc(S(=O)(=O)Nc4ccc(CCCC5CCCC5)cc4F)ccc3C2)cn1` [Working Example 7-91], the IC50 was 140 nM. With `CC(C)(C)c1ccc(CCN2CCc3cc(S(=O)(=O)Nc4ccc(OCCOC5CCCCC5)cc4F)ccc3C2)cc1` [Working Example 8-13], the IC50 stood at 137 nM.

With `CC(c1ccc(C(F)(F)F)nc1)N1CCc2cc(S(=O)(=O)Nc3ccc(CCCC4CCCC4)cc3F)ccc2C1` (single isomer, unassigned) [24-3], the IC50 is 42 nM. In the case of `CC(c1cnc(C(C)(C)C)nc1)N1CCc2cc(S(=O)(=O)Nc3ccc(CCCC4CCCC4)cc3F)ccc2C1` (single isomer, unassigned) [24-8], the IC50 stood at 34 nM. Next, `O=S(=O)(Nc1ccc(CCCC2CCCC2)cc1F)c1ccc2c(c1)CCN(Cc1cnc(-c3ccc(Cl)cc3)s1)C2` [Working Example 7-74]: 105 nM; `CC(C)(C)c1ccc(CCN2CCc3cc(S(=O)(=O)Nc4ccc(OCC[C@H]5CCOC[C@@H]5F)cc4F)ccc3C2)cc1` [Working Example 8-15]: 204 nM; `CC(C)(C)c1ccc(CC(C)(C)N2CCc3cc(S(=O)(=O)Nc4ccc(CCCC5CCCC5)cc4F)ccc3C2)cc1` [20-2]: 14 nM. For the molecule `CC(c1cnc(C(C)(C)C)nc1)N1CCc2cc(S(=O)(=O)Nc3ccc(CCCC4CCCC4)cc3F)ccc2C1` (single isomer, unassigned) [24-7], the IC50 was 57 nM. As to `Cc1cc(CN2CCc3cc(S(=O)(=O)Nc4ccc(CCCC5CCCC5)cc4F)ccc3C2)c(C)n1-c1cccc(C(F)(F)F)c1` [Working Example 7-81], the IC50 turned out to be 45 nM. With `CC(c1cnc(C(F)(F)F)nc1)N1CCc2cc(S(=O)(=O)Nc3ccc(CCCC4CCCC4)cc3F)ccc2C1` (single isomer, unassigned) [24-9], the IC50 came to 131 nM. With `CC(C)Cn1cc(CN2CCc3cc(S(=O)(=O)Nc4ccc(CCCC5CCCC5)cc4F)ccc3C2)cn1` [Working Example 2-6], the IC50 was determined as 174 nM. Take `CC(C)(C)c1ccc(C2(N3CCc4cc(S(=O)(=O)Nc5ccc(CCCC6CCCC6)cc5F)ccc4C3)CC2)cn1` [25-2]: the IC50 turned out to be 60 nM. The same measure for `CC(C)(C)c1ncc(CCN2CCc3cc(S(=O)(=O)Nc4ccc(CCCC5CCCC5)cc4F)ccc3C2)s1` [Working Example 6-88]: 248 nM; for `Cc1nn(-c2ccccc2)c(C)c1CN1CCc2cc(S(=O)(=O)Nc3ccc(CCCC4CCCC4)cc3F)ccc2C1` [Working Example 7-71]: 57 nM; for `CC(C)(C)c1ccc(CCN2CCc3cc(S(=O)(=O)Nc4ccc(OCCC5CCOC5)cc4F)ccc3C2)cc1` (stereo not shown) [Working Example 8-10]: 148 nM.

In the case of `CC(C)(C)c1ccc(CCN2CCc3cc(S(=O)(=O)Nc4ccc(OCCOCC5CCCCO5)cc4F)ccc3C2)cc1` (stereo not shown) [Working Example 8-8], the IC50 amounted to 178 nM. `CC(c1cnc(C(F)(F)F)nc1)N1CCc2cc(S(=O)(=O)Nc3ccc(CCCC4CCCC4)cc3F)ccc2C1` (single isomer, unassigned) [24-10]: the IC50 is 100 nM. The same measure for `Cc1nc(-c2ccccc2)sc1CN1CCc2cc(S(=O)(=O)Nc3ccc(CCCC4CCCC4)cc3F)ccc2C1` [Working Example 7-65]: 118 nM; for `O=S(=O)(Nc1ccc(CCCC2CCCC2)cc1F)c1ccc2c(c1)CCN(Cc1ccc(OCC(F)(F)F)nc1)C2` [Working Example 6-84]: 248 nM.

The values above are taken from patent publication US9035059B2, “Nitrogen-containing condensed heterocyclic compound” (TAISHO PHARMACEUTICAL CO., LTD., priority 2011, dated 2015).
